Measurements taken from PubChem BioAssay (NCI).
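96-well plates; 48 h exposure; 5 concentrations. Endpoints by linear interpolation between flanking doses. Not reached: highest tested concentration assigned. Here, GI50 denotes the concentration required for 50% inhibition of growth. TGI: concentration producing complete growth inhibition.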

Columns and labels:
Experiment in all cases: NCI-60 cell line screen, 48 h
MALME-3M melanoma = tested on: MALME-3M melanoma
HL-60(TB) leukemia = tested on: HL-60(TB) leukemia
KM12 colon = tested on: KM12 colon
SK-MEL-2 melanoma = tested on: SK-MEL-2 melanoma
MCF7 breast = tested on: MCF7 breast
SNB-19 CNS = tested on: SNB-19 CNS
NCI-H23 lung = tested on: NCI-H23 lung
NCI-H460 lung = tested on: NCI-H460 lung
SK-MEL-28 melanoma = tested on: SK-MEL-28 melanoma
A498 renal = tested on: A498 renal
SF-295 CNS = tested on: SF-295 CNS
TK-10 renal = tested on: TK-10 renal
NCI/ADR-RES ovarian = tested on: NCI/ADR-RES ovarian
SF-268 CNS = tested on: SF-268 CNS
UACC-62 melanoma = tested on: UACC-62 melanoma
ACHN renal = tested on: ACHN renal
HS 578T breast = tested on: HS 578T breast
786-0 renal = tested on: 786-0 renal
RPMI-8226 leukemia = tested on: RPMI-8226 leukemia
CCRF-CEM leukemia = tested on: CCRF-CEM leukemia
EKVX NSCLC = tested on: EKVX NSCLC
IGROV1 ovarian = tested on: IGROV1 ovarian
HCT-116 colon = tested on: HCT-116 colon
MDA-MB-435 = tested on: MDA-MB-435
COLO 205 colon = tested on: COLO 205 colon
OVCAR-5 ovarian = tested on: OVCAR-5 ovarian
K-562 leukemia = tested on: K-562 leukemia
CAKI-1 renal = tested on: CAKI-1 renal
HOP-62 NSCLC = tested on: HOP-62 NSCLC
SF-539 CNS = tested on: SF-539 CNS
NCI-H226 lung = tested on: NCI-H226 lung
MOLT-4 leukemia = tested on: MOLT-4 leukemia
SNB-75 CNS = tested on: SNB-75 CNS
UACC-257 melanoma = tested on: UACC-257 melanoma
OVCAR-3 ovarian = tested on: OVCAR-3 ovarian
SK-MEL-5 melanoma = tested on: SK-MEL-5 melanoma
OVCAR-8 ovarian = tested on: OVCAR-8 ovarian
DU-145 prostate = tested on: DU-145 prostate
NCI-H522 lung = tested on: NCI-H522 lung
RXF 393 renal = tested on: RXF 393 renal
M14 melanoma = tested on: M14 melanoma
PC-3 prostate = tested on: PC-3 prostate
U251 CNS = tested on: U251 CNS
HT29 colon = tested on: HT29 colon
T-47D breast = tested on: T-47D breast
HOP-92 NSCLC = tested on: HOP-92 NSCLC
SN12C renal = tested on: SN12C renal
LOX IMVI melanoma = tested on: LOX IMVI melanoma
MDA-MB-231 breast = tested on: MDA-MB-231 breast
UO-31 renal = tested on: UO-31 renal
A549 NSCLC = tested on: A549 NSCLC
SW-620 colon = tested on: SW-620 colon
SK-OV-3 ovarian = tested on: SK-OV-3 ovarian
SR leukemia = tested on: SR leukemia
HCT-15 colon = tested on: HCT-15 colon
OVCAR-4 ovarian = tested on: OVCAR-4 ovarian
HCC-2998 colon = tested on: HCC-2998 colon
BT-549 breast = tested on: BT-549 breast

SMILES: Nc1cc(C(F)F)c(-c2nc(N3[C@@H]4CC[C@H]3COC4)nc(N3[C@@H]4CC[C@H]3COC4)n2)cn1
- GI50 (MALME-3M melanoma): 71.3 nM
- TGI (MALME-3M melanoma): 877 nM
- GI50 (HL-60(TB) leukemia): 2290 nM
- TGI (HL-60(TB) leukemia): > 100000 nM
- GI50 (KM12 colon): 569 nM
- TGI (KM12 colon): > 100000 nM
- GI50 (SK-MEL-2 melanoma): 388 nM
- TGI (SK-MEL-2 melanoma): 4960 nM
- GI50 (MCF7 breast): 189 nM
- TGI (MCF7 breast): > 100000 nM
- GI50 (SNB-19 CNS): 706 nM
- TGI (SNB-19 CNS): > 100000 nM
- GI50 (NCI-H23 lung): 652 nM
- TGI (NCI-H23 lung): > 100000 nM
- GI50 (NCI-H460 lung): 306 nM
- TGI (NCI-H460 lung): > 100000 nM
- GI50 (SK-MEL-28 melanoma): 203 nM
- TGI (SK-MEL-28 melanoma): 2920 nM
- GI50 (A498 renal): 36.7 nM
- TGI (A498 renal): 232 nM
- GI50 (SF-295 CNS): 190 nM
- TGI (SF-295 CNS): 1780 nM
- GI50 (TK-10 renal): 156 nM
- TGI (TK-10 renal): 3220 nM
- GI50 (NCI/ADR-RES ovarian): 603 nM
- TGI (NCI/ADR-RES ovarian): 39500 nM
- GI50 (SF-268 CNS): 374 nM
- TGI (SF-268 CNS): > 100000 nM
- GI50 (UACC-62 melanoma): 212 nM
- TGI (UACC-62 melanoma): 2200 nM
- GI50 (ACHN renal): 302 nM
- TGI (ACHN renal): > 100000 nM
- GI50 (HS 578T breast): 180 nM
- TGI (HS 578T breast): 908 nM
- GI50 (786-0 renal): 306 nM
- TGI (786-0 renal): 14300 nM
- GI50 (RPMI-8226 leukemia): 237 nM
- GI50 (CCRF-CEM leukemia): 690 nM
- TGI (CCRF-CEM leukemia): > 100000 nM
- GI50 (EKVX NSCLC): 277 nM
- TGI (EKVX NSCLC): 6610 nM
- GI50 (IGROV1 ovarian): 146 nM
- TGI (IGROV1 ovarian): 1540 nM
- GI50 (HCT-116 colon): 769 nM
- TGI (HCT-116 colon): > 100000 nM
- GI50 (MDA-MB-435): 378 nM
- TGI (MDA-MB-435): > 30600 nM
- GI50 (COLO 205 colon): 329 nM
- TGI (COLO 205 colon): 14500 nM
- GI50 (OVCAR-5 ovarian): 300 nM
- TGI (OVCAR-5 ovarian): 43000 nM
- GI50 (K-562 leukemia): 673 nM
- TGI (K-562 leukemia): > 100000 nM
- GI50 (CAKI-1 renal): 188 nM
- TGI (CAKI-1 renal): 3210 nM
- GI50 (HOP-62 NSCLC): 161 nM
- TGI (HOP-62 NSCLC): 2360 nM
- GI50 (SF-539 CNS): 297 nM
- TGI (SF-539 CNS): 3020 nM
- GI50 (NCI-H226 lung): 244 nM
- TGI (NCI-H226 lung): > 21900 nM
- GI50 (MOLT-4 leukemia): 796 nM
- TGI (MOLT-4 leukemia): > 100000 nM
- GI50 (SNB-75 CNS): 60 nM
- TGI (SNB-75 CNS): 793 nM
- GI50 (UACC-257 melanoma): 295 nM
- TGI (UACC-257 melanoma): 4310 nM
- GI50 (OVCAR-3 ovarian): 435 nM
- TGI (OVCAR-3 ovarian): > 100000 nM
- GI50 (SK-MEL-5 melanoma): 407 nM
- TGI (SK-MEL-5 melanoma): 4480 nM
- GI50 (OVCAR-8 ovarian): 465 nM
- TGI (OVCAR-8 ovarian): > 100000 nM
- GI50 (DU-145 prostate): 426 nM
- TGI (DU-145 prostate): > 100000 nM
- GI50 (NCI-H522 lung): 295 nM
- TGI (NCI-H522 lung): > 100000 nM
- GI50 (RXF 393 renal): 180 nM
- TGI (RXF 393 renal): 816 nM
- GI50 (M14 melanoma): 295 nM
- TGI (M14 melanoma): 23900 nM
- GI50 (PC-3 prostate): 239 nM
- TGI (PC-3 prostate): > 100000 nM
- GI50 (U251 CNS): 501 nM
- TGI (U251 CNS): > 100000 nM
- GI50 (HT29 colon): 628 nM
- TGI (HT29 colon): > 100000 nM
- GI50 (T-47D breast): 53.3 nM
- TGI (T-47D breast): 410 nM
- GI50 (HOP-92 NSCLC): 68.8 nM
- TGI (HOP-92 NSCLC): 722 nM
- GI50 (SN12C renal): 342 nM
- TGI (SN12C renal): > 100000 nM
- GI50 (LOX IMVI melanoma): 336 nM
- TGI (LOX IMVI melanoma): > 48000 nM
- GI50 (MDA-MB-231 breast): 406 nM
- TGI (MDA-MB-231 breast): > 93300 nM
- GI50 (UO-31 renal): 119 nM
- TGI (UO-31 renal): 6850 nM
- GI50 (A549 NSCLC): 341 nM
- TGI (A549 NSCLC): > 100000 nM
- GI50 (SW-620 colon): 803 nM
- TGI (SW-620 colon): > 100000 nM
- GI50 (SK-OV-3 ovarian): 145 nM
- TGI (SK-OV-3 ovarian): 769 nM
- GI50 (SR leukemia): 191 nM
- TGI (SR leukemia): 21000 nM
- GI50 (HCT-15 colon): 345 nM
- TGI (HCT-15 colon): > 100000 nM
- GI50 (OVCAR-4 ovarian): 191 nM
- TGI (OVCAR-4 ovarian): 2030 nM
- GI50 (HCC-2998 colon): 636 nM
- TGI (HCC-2998 colon): > 100000 nM
- GI50 (BT-549 breast): 179 nM
- TGI (BT-549 breast): 2770 nM
